In ChEMBL document CHEMBL1137656, “Effects of serum on in vitro susceptibility testing of echinocandins” (Antimicrob Agents Chemother, 2007):
Numbered stars: 1 amine (or outer) side, 2 acyl side, 3 side chain; on linkers, the order of the positions; unused ones are H or OH. Bridge positions count the residues as written; N and C are the ends. Square brackets hold non-standard residues; d marks the D form. Peptide text beside a SMILES is read from it. * marks the point of attachment. hTyr(3S-OH,4S-OH,3'-OSO3H) = N[C@H](C(=O)O)[C@H](O)[C@@H](O)c1ccc(O)c(OS(=O)(=O)O)c1; Orn(4R-OH,5R-OH) = O=C([C@H](C[C@@H](O)[C@@H](O)N[*:3])N[*:1])[*:2]; Pro(3S-OH,4S-Me) = C[C@H]1CN[C@H](C(=O)O)[C@H]1O; X1 = CCCCCOc1ccc(-c2cc(-c3ccc(C(=O)*)cc3)no2)cc1; Gln(3R-OH) = NC(=O)C[C@@H](O)[C@H](N)C(=O)O; Hyp = O=C(O)[C@@H]1C[C@@H](O)CN1

Tests used:
Format in all cases: functional
[1] = system: Aspergillus flavus; test: Ratio of MIC50 for Aspergillus flavus isolate 0001-033 in presence of 50% human serum to MIC50 for Aspergillus flavus isolate 0001-033 in presence of RPMI 1640 medium
[2] = system: Aspergillus flavus; test: Antifungal activity against Aspergillus flavus isolate 0001-061 after 24 hrs by CLSI M38-A broth microdilution method in presence of 50% human serum; details: isolate 0001-061, 24 h
[3] = system: Pichia kudriavzevii; test: Antifungal activity against Candida krusei isolate 0001-058 after 24 hrs by CLSI M27-A2 broth microdilution method in presence of RPMI 1640 medium; details: isolate 0001-058, 24 h
[4] = system: Pichia kudriavzevii; test: Antifungal activity against Candida krusei isolate 0001-058 after 24 hrs by CLSI M27-A2 broth microdilution method in presence of 50% human serum; details: isolate 0001-058, 24 h
[5] = system: Pichia kudriavzevii; test: Antifungal activity against Candida krusei isolate 0013-054 after 24 hrs by CLSI M27-A2 broth microdilution method in presence of RPMI 1640 medium; details: isolate 0013-054, 24 h
[6] = system: Pichia kudriavzevii; test: Antifungal activity against Candida krusei ATCC 6258 after 24 hrs by CLSI M27-A2 broth microdilution method in presence of 50% human serum; details: ATCC 6258, 24 h
[7] = system: Candida parapsilosis; test: Antifungal activity against Candida parapsilosis isolate 0014-074 after 24 hrs by CLSI M27-A2 broth microdilution method in presence of RPMI 1640 medium; details: Lodderomyces parapsilosis, isolate 0014-074, 24 h
[8] = system: Candida albicans; test: Antifungal activity against Candida albicans isolate 0021-076 after 24 hrs by CLSI M27-A2 broth microdilution method in presence of RPMI 1640 medium; details: isolate 0021-076, 24 h
[9] = system: Candida albicans; test: Antifungal activity against Candida albicans isolate 0021-076 after 24 hrs by CLSI M27-A2 broth microdilution method in presence of 50% human serum; details: isolate 0021-076, 24 h
[10] = system: Clavispora lusitaniae; test: Antifungal activity against Candida lusitaniae isolate 0015-049 after 24 hrs by CLSI M27-A2 broth microdilution method in presence of RPMI 1640 medium; details: isolate 0015-049, 24 h
[11] = system: Clavispora lusitaniae; test: Antifungal activity against Candida lusitaniae isolate 0015-049 after 24 hrs by CLSI M27-A2 broth microdilution method in presence of 50% human serum
[12] = system: Clavispora lusitaniae; test: Ratio of MIC50 for Candida lusitaniae isolate 0015-049 in presence of 50% human serum to MIC50 for Candida lusitaniae isolate 0015-049 in presence of RPMI 1640 medium
[13] = system: Candida parapsilosis; test: Antifungal activity against Candida parapsilosis isolate 0036-030 after 24 hrs by CLSI M27-A2 broth microdilution method in presence of RPMI 1640 medium; details: Lodderomyces parapsilosis, isolate 0036-030, 24 h
[14] = system: Candida parapsilosis; test: Antifungal activity against Candida parapsilosis isolate 0036-030 after 24 hrs by CLSI M27-A2 broth microdilution method in presence of 50% human serum; details: Lodderomyces parapsilosis, isolate 0036-030, 24 h
[15] = system: Candida parapsilosis; test: Antifungal activity against Candida parapsilosis ATCC 22019 after 24 hrs by CLSI M27-A2 broth microdilution method in presence of RPMI 1640 medium; details: Lodderomyces parapsilosis, ATCC 22019, 24 h
[16] = system: Nakaseomyces glabratus; test: Antifungal activity against Candida glabrata isolate 0022-012 after 24 hrs by CLSI M27-A2 broth microdilution method in presence of 50% human serum; details: isolate 0022-012, 24 h
[17] = system: Nakaseomyces glabratus; test: Ratio of MIC50 for Candida glabrata isolate 0022-012 in presence of 50% human serum to MIC50 for Candida glabrata isolate 0022-012 in presence of RPMI 1640 medium
[18] = system: Nakaseomyces glabratus; test: Antifungal activity against Candida glabrata isolate 0049-038 after 24 hrs by CLSI M27-A2 broth microdilution method in presence of 50% human serum; details: isolate 0049-038, 24 h
[19] = system: Candida tropicalis; test: Antifungal activity against Candida tropicalis isolate 0022-021 after 24 hrs by CLSI M27-A2 broth microdilution method in presence of RPMI 1640 medium; details: isolate 0022-021, 24 h
[20] = system: Aspergillus terreus; test: Antifungal activity against Aspergillus terreus isolate 0031-087 after 48 hrs by CLSI M38-A broth microdilution method in presence of RPMI 1640 medium; details: isolate 0031-087, 48 h
[21] = system: Aspergillus terreus; test: Antifungal activity against Aspergillus terreus isolate 0031-087 after 48 hrs by CLSI M38-A broth microdilution method in presence of 50% human serum; details: isolate 0031-087, 48 h
[22] = system: Aspergillus terreus; test: Ratio of MIC50 for Aspergillus terreus isolate 0031-087 in presence of 50% human serum to MIC50 for Aspergillus terreus isolate 0031-087 in presence of RPMI 1640 medium
[23] = system: Aspergillus niger; test: Antifungal activity against Aspergillus niger isolate 0001-073 after 24 hrs by CLSI M38-A broth microdilution method in presence of 50% human serum; details: isolate 0001-073, 24 h
[24] = system: Aspergillus fumigatus; test: Antifungal activity against Aspergillus fumigatus isolate 0002-0016 after 24 hrs by CLSI M38-A broth microdilution method in presence of RPMI 1640 medium; details: isolate 0002-0016, 24 h
[25] = system: Aspergillus fumigatus; test: Ratio of MIC50 for Aspergillus fumigatus isolate 0002-0016 in presence of 50% human serum to MIC50 for Aspergillus fumigatus isolate 0002-0016 in presence of RPMI 1640 medium
[26] = system: Aspergillus fumigatus; test: Antifungal activity against Aspergillus fumigatus isolate 0020-018 after 24 hrs by CLSI M38-A broth microdilution method in presence of RPMI 1640 medium; details: isolate 0020-018, 24 h
[27] = system: Aspergillus fumigatus; test: Antifungal activity against Aspergillus fumigatus isolate 0020-018 after 24 hrs by CLSI M38-A broth microdilution method in presence of 50% human serum; details: isolate 0020-018, 24 h
[28] = system: Aspergillus fumigatus; test: Ratio of MIC50 for Aspergillus fumigatus isolate […] in presence of 50% human serum to MIC50 for Aspergillus fumigatus isolate 0020-018 in presence of RPMI 1640 medium
[29] = system: Aspergillus fumigatus; test: Antifungal activity against Aspergillus fumigatus isolate 0002-020 after 24 hrs by CLSI M38-A broth microdilution method in presence of 50% human serum; details: isolate 0002-020, 24 h
[30] = system: Aspergillus fumigatus; test: Ratio of MIC50 for Aspergillus fumigatus isolate 0002-020 in presence of 50% human serum to MIC50 for Aspergillus fumigatus isolate 0002-020 in presence of RPMI 1640 medium
[31] = system: Aspergillus fumigatus; test: Antifungal activity against Aspergillus fumigatus isolate 0002-021 after 24 hrs by CLSI M38-A broth microdilution method in presence of RPMI 1640 medium; details: isolate 0002-021, 24 h
[32] = system: Aspergillus fumigatus; test: Antifungal activity against Aspergillus fumigatus isolate 0002-021 after 24 hrs by CLSI M38-A broth microdilution method in presence of 50% human serum; details: isolate 0002-021, 24 h
[33] = system: Aspergillus flavus; test: Antifungal activity against Aspergillus flavus isolate 0001-033 after 24 hrs by CLSI M38-A broth microdilution method in presence of RPMI 1640 medium; details: isolate 0001-033, 24 h

MIC50 [2] [µg/mL]	MIC50 [3] [µg/mL]	MIC50 [4] [µg/mL]	MIC50 [5] [µg/mL]	MIC50 [6] [µg/mL]	MIC50 [7] [µg/mL]	MIC50 [8] [µg/mL]	MIC50 [9] [µg/mL]	MIC50 [10] [µg/mL]	MIC50 [11] [µg/mL]	MIC50 [13] [µg/mL]	MIC50 [14] [µg/mL]	MIC50 [15] [µg/mL]	MIC50 [16] [µg/mL]	MIC50 [18] [µg/mL]	MIC50 [19] [µg/mL]	MIC50 [20] [µg/mL]	Compound	Ratio [1]	Ratio [12]	Ratio [17]	other results
128	0.5	0.5	0.5	4	0.25	0.5	4	0.5	1	1	8	0.5	0.5	0.5	0.5	0.5	CC[C@H](C)C[C@H](C)CCCCCCCCC(=O)N[C@H]1C[C@@H](O)[C@@H](NCCN)NC(=O)[C@@H]2[C@@H](O)CCN2C(=O)[C@H]([C@H](O)CCN)NC(=O)[C@H]([C@H](O)[C@@H](O)c2ccc(O)cc2)NC(=O)[C@@H]2C[C@@H](O)CN2C(=O)[C@H]([C@@H](C)O)NC1=O [CASPOFUNGIN]	4	2	1	MIC50 [21]: 0.5 µg/mL; Ratio [22]: 1; MIC50 [23]: 0.25 µg/mL; MIC50 [24]: 8 µg/mL; Ratio [25]: 16; MIC50 [26]: 16 µg/mL; MIC50 [27]: 128 µg/mL; Ratio [28]: 8; MIC50 [29]: 128 µg/mL; Ratio [30]: 256; MIC50 [31]: 1 µg/mL; MIC50 [32]: 128 µg/mL; MIC50 [33]: 32 µg/mL
128	0.0625	2	0.125	8	0.0156	0.5	64	0.0156	4	0.5	128	0.5	1	1	0.0156	0.002	CCCCCOc1ccc(-c2cc(-c3ccc(C(=O)N[C@H]4C[C@@H](O)[C@@H](O)NC(=O)[C@@H]5[C@@H](O)[C@@H](C)CN5C(=O)[C@H]([C@H](O)CC(N)=O)NC(=O)[C@H]([C@H](O)[C@@H](O)c5ccc(O)c(OS(=O)(=O)O)c5)NC(=O)[C@@H]5C[C@@H](O)CN5C(=O)[C@H]([C@@H](C)O)NC4=O)cc3)no2)cc1 [MICAFUNGIN] (X1-[Orn(4R-OH,5R-OH)]T[Hyp][hTyr(3S-OH,4S-OH,3'-OSO3H)][Gln(3R-OH)][Pro(3S-OH,4S-Me)]; lactam 1-C)	1024	256	64	MIC50 [21]: 0.25 µg/mL; Ratio [22]: 128; MIC50 [23]: 0.25 µg/mL; MIC50 [24]: 0.0313 µg/mL; Ratio [25]: 64; MIC50 [26]: 0.0156 µg/mL; MIC50 [27]: 0.5 µg/mL; Ratio [28]: 32; MIC50 [29]: 0.5 µg/mL; Ratio [30]: 128; MIC50 [31]: 0.001 µg/mL; MIC50 [32]: 1 µg/mL; MIC50 [33]: 0.125 µg/mL
